Data set [1] has as its system CSF-1 mRNA in MDA-MB-231 cells. In words: RT-qPCR of CSF-1 mRNA. In kind it is cell-based, human. To be noted: 18 h, RT-qPCR normalized to 18S. Here is the method: (§1) Quantitative real-time PCR was performed for CSF-1, E-cadherin, and 18S (as a reference gene) mRNAs. MDA-MB-231 cells (1.2 × 10^5 cells/well) were seeded into a 12-well plate and incubated at 37 °C with 5% CO2 for 24 h. These cells were treated with indicated compounds (YL2, adamantane, ND1-YL2, or YL2-HyT6) for 18 h in Opti-MEM medium. After cells were washed with cold DPBS, mRNAs were isolated from these cells using an AccuPrep Universal RNA extraction kit (Bioneer, Daejeon, Korea). Then 1.5 µg of mRNAs were reverse-transcribed using AccuPower RocketScript Cycle RT PreMix (Bioneer) to generate complementary DNAs. RT-qPCR for CSF-1, E-cadherin, and 18S was performed with a StepOnePlus Real-Time PCR System (Applied Biosystems, Waltham, MA, USA) and SYBR Green mix (Applied Biosystems) according to the manufacturer’s instructions with gene-specific primers (Table 1).

In data set [2] the test system is E-cadherin mRNA in MDA-MB-231 cells. As to the kind of experiment: RT-qPCR of E-cadherin mRNA. In kind it is cell-based, human. To be noted: 18 h, RT-qPCR normalized to 18S. Here is the method:
as §1

In data set [3] the target is SRC-1. To be noted: in vitro binding activity; cited from earlier work. The source says: The SRC-1 degrader ND1-YL2 is a chimeric molecule composed of a ligand (YL2) for SRC-1 [31] and a UBR E3 ligase binder (Figure 2). […] ND1-YL2 was generated by conjugating a tetrapeptide RLAA, the N-degron peptide as a binder for UBR. Thus, this bifunctional molecule enables the recruitment of SRC-1 to UBR protein, thereby promoting the formation of a ternary complex for polyubiquitination and proteasomal degradation of SRC-1.

The subject of data set [4] is SRC-1. To be noted: stapled peptide lacking the hydrophobic tag; cited from earlier work. Here is the method:
Cellular levels of SRC-1 were analyzed at various time points (12, 18, and 24 h) by immunoblotting.

On the set-up of data set [5]: method as in PMID 29090910. To be noted: compared with the corresponding native peptide sequence; cited from earlier work.
Data set [6] in a line: Circular dichroism (CD), calculated helicity. To be noted: 50 μM peptide in 30% PBS (pH 7.4) and 70% acetonitrile, calculated from CD spectra. Type of data set: physicochemical. Here is the method: Lyophilized compounds (YL2 and YL2-HyT1 through YL2-HyT6) were dissolved in 30% PBS (pH 7.4) and 70% acetonitrile solution to a final concentration of 50 μM. CD spectra were measured with a Jasco J-815 CD spectropolarimeter using a quartz cuvette (2 mm path length). These spectra were averages of five successive accumulations with a scan rate of 100 nm/min. Raw data were converted in terms of per-residue molar ellipticity (deg·cm^2·dmol^−1·residue^−1) as calculated per mole of amide groups present and normalized by the molar concentration of peptides. Smoothing and correction of background spectra were performed with Origin Pro 8.0 (OriginLab Corporation, Northampton, MA, USA). Then α-helical propensities of YL2 and YL2-HyT1 through YL2-HyT6 were calculated as previously reported.

Details of data set [7]: method as in PMID 29090910. To be noted: cited from earlier work.

pKi: −log10 of the molar value. Bridge positions count the residues as written; N and C are the ends. Square brackets hold non-standard residues; d marks the D form. Peptide text beside a SMILES is read from it. Cha = N[C@@H](CC1CCCCC1)C(=O)O; S5 = C=CCCC[C@](C)(N)C(=O)O

For the molecule `CC(C)C[C@@H]1NC(=O)[C@H](CCCCN)NC(=O)[C@@](C)(NC(=O)[C@H](CC(C)C)NC(=O)[C@H](CC(=O)O)NC(=O)[C@H](CCC(N)=O)NC(=O)[C@H](CCC(=O)O)NC(=O)[C@@H](NC(=O)[C@@H]2CCCN2C(=O)[C@@H]2CCCN2C(=O)[C@H](CC(C)C)NC(=O)[C@@H](N)CC(C)C)[C@@H](C)O)CCC/C=C\CCC[C@@](C)(C(=O)N[C@@H](Cc2ccc(O)cc2)C(N)=O)NC(=O)[C@H](CC2CCCCC2)NC1=O` [YL2] (H-LLPPTEQDL[S5]KL[Cha][S5]Y-NH2; staple (Z) 10-14; N-terminus assumed), the “CSF-1 mRNA expression level” value in data set [1] is recorded as “no effect”. Moreover, in data set [2], the “E-cadherin mRNA expression level” value is given as “no effect”. Further, on SRC-1 [3], the pKi was 6.85. Also, in the data set on SRC-1 [4], the SRC-1 degradation result was “unable to induce SRC-1 degradation”. The Proteolytic resistance result in data set [5] was “increased proteolytic resistance”. For the same molecule, the “Helicity (%)” value in data set [6] is on record as 32.5%. Further, the Cell penetration ability result in data set [7] is “reasonable cell penetration ability”.

Values taken from paper PMC8232704, “Hydrophobic Tagging-Mediated Degradation of Transcription Coactivator SRC-1” (International Journal of Molecular Sciences, 2021).
